Patent publication US3997506A (priority 1974, dated 1976)
“And” between values parts separate entries of the source, which are not always exact repeats. Equal values may be shown once. Read-outs that look alike come from different tables or passages of the source.

Assays:
human leucocytes [1] = conditions: 0.01 μg/ml to 10 μg/ml; up to 30 hours; no PHA
leucocytes from rats [2] = format: in vivo, Sprague Dawley SIV 50 he-rats; conditions: 2 mg/kg oral
leucocytes from rats [3] = conditions: individual rat, 2 mg/kg oral, 2 mg/kg
leucocytes from rats [4] = conditions: 6 hours after administration, 2 mg/kg oral
in vitro = format: cell-based, human; conditions: human, leucocytes, read-out: % of dead cells
Method: (§1) The cytotoxicity has been investigated on human leucocytes by means of the viability test with Trypan blue.
(§2) a. In a first experimentation cultures of leucocytes of a voluntary […] were prepared and caused to undergo incubation with phytohemagglutinin (PHA) and with different concentrations of colchicine or of its derivative (C1 = 2.5 μg/ml of culture, C3 = 10 μg/ml, C5 = 30 μg/ml, C6 = 50 μg/ml). Leucocytes only containing PHA served as controls.
(§3) After 3, 42, 68 and 72 hours of incubation a sample of each culture was contacted by a drop of Trypan blue and laid on a slide of a microscope. Then took place the counting of the dead cells (those with assumed an […] colour) and of all the cells present on the slide in order to obtain the ratio of the number of dead cells to the total number of cells. The results expressed as a rate in per cent are shown in the accompanying table 8.
(§4) b. After the experimentation which has just been described, the study of cytotoxicity has been continued with two other samples of human leucocytes still by means of the viability test with Trypan blue.
(§5) C1 = 2.5 μg/ml of culture
(§6) C6 = 50 μg/ml of culture;
(§7) and for the carboxy-1-adamantane fraction to:
(§8) C3 = 4.5 μg/ml of culture
(§9) C6 = 22.5 μg/ml of culture.
(§10) Leucocytes only containing phytohemagglutinin and others containing phytohemagglutinin and 50 μl of methanol served as controls.
(§11) The percentage of dead cells was determined after different numbers of hours of incubation.

human leucocytes [5] = test: in vitro; format: cell-based
Method: as §1, §2, §3, §4, §5, §6, §7, §8, §9, §10, §11

[6] = tested on: oedema produced by crystals of urate in the hind paw of the rat; format: in vivo, Sprague Dawely female rats
leucocytes from rats [7] = conditions: individual rat, 2 mg/kg oral
[8] = tested on: Sprague Dawley SIV 50 rat; format: in vivo, male and female Sprague Dawley SIV 50 rat
Description: The high toxicity of the new derivative of colchicine (N-desacetyl-N-adamantoyl-thiocolchicine) has been investigated through the oral way with the male and female Sprague Dawley SIV 50 rat having an average weight of 100 g.
Two experiments have been carried out. In the first one, only the high toxicity of the derivative has been studied; in the second one, the high toxicity of the derivative has been compared with that of colchicine.
The derivative and colchicine have been administered in suspension in propylene glycol through an oesophageal tube at the rate of 2 ml per rat for the first experiment and of 1 ml for the second one.
The animals have been observed for 10 days.

human leucocytes [9] = tested on: human leucocytes
[10] = first experimentation, C1 = 2.5 μg/ml
[11] = first experimentation, C3 = 10 μg/ml
[12] = first experimentation, C5 = 30 μg/ml
[13] = first experimentation, C6 = 50 μg/ml
[14] = 2 mg/kg, three subcutaneous injections, 6 h after urate
[15] = 6 hours after administration, 2 mg/kg

COc1cc2c(c(OC)c1OC)-c1ccc(OC)c(=O)cc1[C@@H](NC(C)=O)CC2 [Colchicine, colchicine, reference compound]
cytotoxicity (in words) (human leucocytes [1]): no cytotoxicity is detectable
cpm / number of lymphocytes, mean (leucocytes from rats [2]; 6 hours after administration, group mean, factor and spread printed on following lines): 2.72 × 10^-^2 cpm/number of lymphoc
Number of lymphocytes/culture (leucocytes from rats [2]; 6 hours after administration, individual rat, 2 mg/kg): 148,200 lymphocytes/culture and 108,240 lymphocytes/culture
cpm / number of lymphocytes (immunity response) (leucocytes from rats [2]; 6 hours after administration, individual rat, factor × 10^-^2, 2 mg/kg): 5.03 × 10^-^2 cpm/number of lymphoc and 0.40 × 10^-^2 cpm/number of lymphoc
Number of lymphocytes/culture (leucocytes from rats [2]; before administration, individual rat, 2 mg/kg): 103,960 lymphocytes/culture and 163,400 lymphocytes/culture and 156,400 lymphocytes/culture
Leucocytes / mm^3 (leucocytes from rats [3]; experiment 1, 6 hours after administration): 9,500 / mm^3 and 7,900 / mm^3 and 7,750 / mm^3
Leucocytes / mm^3 (leucocytes from rats [3]; experiment 1, before administration): 16,600 / mm^3 and 10,450 / mm^3 and 10,000 / mm^3
Leucocytes / mm^3 (leucocytes from rats [3]; experiment 2, 6 hours after administration): 7,950 / mm^3 and 6,950 / mm^3 and 8,900 / mm^3
Leucocytes / mm^3 (leucocytes from rats [3]; experiment 2, before administration): 9,000 / mm^3 and 7,050 / mm^3 and 9,950 / mm^3
Leucocytes / mm^3 (leucocytes from rats [3]; experiment 3, 6 hours after administration): 9,750 / mm^3 and 13,750 / mm^3
Leucocytes / mm^3 (leucocytes from rats [3]; experiment 3, before administration): 10,750 / mm^3 and 8,500 / mm^3 and 15,250 / mm^3
cytotoxic effect (in words) (leucocytes from rats [4]): no cytotoxic effect has been noticed
% of dead cells (leucocytes from rats [4]; individual rat, 2 mg/kg, 360 min): 1% and 2% and 0%
cytotoxicity at 4 h (in vitro; Culture I, C3 = 10 μg/ml): 6%
cytotoxicity at 4 h (in vitro; Culture I, C6 = 50 μg/ml): 9%
cytotoxicity at 22 h (in vitro; Culture I, C3 = 10 μg/ml): 5%
cytotoxicity at 22 h (in vitro; Culture I, C6 = 50 μg/ml): 7%
cytotoxicity at 46 h (in vitro; Culture I, C3 = 10 μg/ml): 24%
cytotoxicity at 46 h (in vitro; Culture I, C6 = 50 μg/ml): 19%
cytotoxicity at 76 h (in vitro; Culture I, C3 = 10 μg/ml): 24%
cytotoxicity at 76 h (in vitro; Culture I, C6 = 50 μg/ml): 23%
cytotoxicity at 23 h (in vitro; Culture II, C1 = 2.5 μg/ml): 3%
cytotoxicity at 23 h (in vitro; Culture II, C3 = 10 μg/ml): 4%
cytotoxicity at 23 h (in vitro; Culture II, C5 = 30 μg/ml): 5%
cytotoxicity at 46 h (in vitro; Culture II, C1 = 2.5 μg/ml): 11%
cytotoxicity at 46 h (in vitro; Culture II, C3 = 10 μg/ml): 8%
cytotoxicity at 46 h (in vitro; Culture II, C5 = 30 μg/ml): 11%
cytotoxicity at 72 h (in vitro; Culture II, C1 = 2.5 μg/ml): 13%
cytotoxicity at 72 h (in vitro; Culture II, C3 = 10 μg/ml): 14%
cytotoxicity at 72 h (in vitro; Culture II, C5 = 30 μg/ml): 18%
cytotoxicity at 3 h (in vitro; [10]): 1%
cytotoxicity at 3 h (in vitro; [11]): 1%
cytotoxicity at 3 h (in vitro; [12]): 0%
cytotoxicity at 3 h (in vitro; [13]): 0%
cytotoxicity at 42 h (in vitro; [10]): 3%
cytotoxicity at 42 h (in vitro; [11]): 2%
cytotoxicity at 42 h (in vitro; [12]): 10%
cytotoxicity at 42 h (in vitro; [13]): 2%
cytotoxicity at 68 h (in vitro; [10]): 6%
cytotoxicity at 68 h (in vitro; [11]): 9%
cytotoxicity at 68 h (in vitro; [12]): 9%
cytotoxicity at 68 h (in vitro; [13]): 21%
cytotoxicity at 72 h (in vitro; [10]): 7%
cytotoxicity at 72 h (in vitro; [12]): 18%
cytotoxicity at 72 h (in vitro; [13]): 24%
cytotoxicity, cultures I and II (in words) (human leucocytes [5]; Cultures I and II): practically identical with that due to the methanol
cytotoxicity, colchicine versus derivative (in words) (human leucocytes [5]; [10]): substantially the same
% of inhibition of edema [6, 14]: 48%
Difference in weight between left and right leg (Average ± standard deviation of mean term) [6, 14]: 0.152 ± 0.019 g
protection against the oedema produced by crystals of urate (in words) ([6]; colchicine 2 mg/kg, derivative 6 mg/kg): significant protection
Basophils (leucocytes from rats [7]; 6 hours after administration): 0
Eosinophils (leucocytes from rats [7]; 6 hours after administration): 0
Lymphocytes (leucocytes from rats [7]; [15]): 92 and 81 and 84
Neutrophils with non-segmented nucleus (leucocytes from rats [7]; [15]): 1 and 3
Neutrophils with segmented nucleus (leucocytes from rats [7]; [15]): 6 and 16 and 17
Basophils (leucocytes from rats [7]; before administration): 0
Monocytes (leucocytes from rats [7]; before administration): 2
Lymphocytes (leucocytes from rats [7]; before administration, 2 mg/kg): 94 and 83 and 87
rats dead after 24 hours ([8]; 100 mg/kg oral): 1 rat
rats dead after 48 hours ([8]; 100 mg/kg oral): 5 rats
rats dead after 24 hours ([8]; 500 mg/kg oral): 5 rats
rats dead after 48 hours ([8]; 500 mg/kg oral): 1 rat
number of leucocytes with increasing amounts (in words) (human leucocytes [9]; Table 9, 72 hours): decreases with increasing amounts of colchicine
Count of leucocytes after 72 hours (human leucocytes [9]; Table 9, C1 = 2.5 μg/ml, control 412,500): 457,000
Count of leucocytes after 72 hours (human leucocytes [9]; Table 9, C3 = 10 μg/ml, control 412,500): 420,000
Count of leucocytes after 72 hours (human leucocytes [9]; Table 9, C5 = 30 μg/ml, control 412,500): 397,000
Count of leucocytes after 72 hours (human leucocytes [9]; Table 9, C6 = 50 μg/ml, control 412,500): 270,000
Count of leucocytes after 72 hours (human leucocytes [9]; Table 11, Culture I, C3 = 10 μg/ml): 550,000
Count of leucocytes after 72 hours (human leucocytes [9]; Table 11, Culture I, C6 = 50 μg/ml): 610,000
Count of leucocytes after 72 hours (human leucocytes [9]; Table 11, Culture II, C1 = 2.5 μg/ml): 240,000
Count of leucocytes after 72 hours (human leucocytes [9]; Table 11, Culture II, C3 = 10 μg/ml): 295,000
Count of leucocytes after 72 hours (human leucocytes [9]; Table 11, Culture II, C5 = 30 μg/ml): 205,000
Count of leucocytes after 72 hours (human leucocytes [9]; Table 11, Culture II, C6 = 50 μg/ml (two values given)): 225,000 and 330,000
number of leucocytes in absence or presence of substance (in words) (human leucocytes [9]; Table 11, very approximative): remain substantially the same
